# Biological target: activated ERK2 (Homo sapiens (Human), UniProt P28482)
# Assay: Activated ERK2 (20 pM) Kinase Assay (AlphaScreen, ERKtide phosphorylation)
# Assay type: biochemical
# Conditions: 0.02 nM ERK2, 400 nM ERKtide peptide, 35 μM ATP, 30 min preincubation
# Protocol: Activated ERK2 (20 pM) Kinase Assay:
# The assay was carried out in 20 mM HEPES [pH 7.5], 5 mM MgCl2, 1 mM DTT, 0.01% Tween-20, 0.05% BSA using 0.02 nM ERK2, 400 nM ERKtide peptide and 35 μM ATP (all concentrations are final in the reaction) in a total volume of 10.25 μL. […] Compound dilution series were prepared in 100% DMSO. ERK2 was preincubated with compounds for 30 minutes at ambient temperature. Reaction was initiated by addition of a substrate cocktail of ERKtide peptide and ATP and was allowed to proceed for 4 hours at ambient temperature. Reaction was terminated by addition of 10 μL of a 2× stop buffer consisting of 100 mM Tris-Cl [pH 7.5], 25 mM EDTA, 0.01% Tween 20, 20 μg/mL of AlphaScreen Protein A Acceptor Beads, 20 μg/mL of Streptavidin Donor Beads (PerkinElmer, Waltham, Mass.), and 1:1000 dilution phospho-EGF Receptor (Thr669) antibody (Cat #8808, Cell Signaling Technology, Danvers, Mass.). Terminated reactions were read, after overnight incubation in the dark, on an EnVision Multilabel Plate Reader (PerkinElmer, Waltham, Mass.), with excitation and emission wavelengths set to 680 nm and 570 nm, respectively. IC50 values were determined using a four-parameter fit.
# Chain of activated ERK2 (P28482 whole entry): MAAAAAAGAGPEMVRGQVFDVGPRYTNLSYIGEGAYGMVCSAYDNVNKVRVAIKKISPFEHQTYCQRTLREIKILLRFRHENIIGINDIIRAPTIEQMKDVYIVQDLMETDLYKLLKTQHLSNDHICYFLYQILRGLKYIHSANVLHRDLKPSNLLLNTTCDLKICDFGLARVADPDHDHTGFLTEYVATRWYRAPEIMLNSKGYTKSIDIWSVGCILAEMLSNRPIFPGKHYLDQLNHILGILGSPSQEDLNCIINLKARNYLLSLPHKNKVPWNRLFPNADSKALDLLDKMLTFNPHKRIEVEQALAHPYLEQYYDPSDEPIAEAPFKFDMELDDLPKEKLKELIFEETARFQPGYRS
row,SMILES,IC50 [nM]
1,"Cn1cc(-c2cnc(N)c(-c3ccc(C(=O)N[C@H](CO)C4CCCCC4)c(F)c3)c2)cn1 [Example 244, (S)-4-(2-amino-5-(1-methyl-1H-pyrazol-4-yl)pyridin-3-yl)-N-(1-cyclohexyl-2-hydroxyethyl)-2-fluorobenzamide]",157
2,"CNC[C@@H](NC(=O)c1ccc(-c2nc([C@@H]3CC[C@@H](O)[C@H](F)C3)cnc2N)cc1F)c1cc(F)cc(I)c1 [Example 358, 4-(3-amino-6-((1R,3R,4R)-3-fluoro-4-hydroxy-cyclohexyl)pyrazin-2-yl)-2-fluoro-N-((S)-1-(3-fluoro-5-iodophenyl)-2-(methylamino)ethyl)benzamide]",0.0205
3,"CO[C@H]1CC[C@H](c2cnc(N)c(-c3ccc(C(=O)N[C@H](CNC(C)=O)c4cccc(Cl)c4)c(F)c3)n2)CC1 [Example 406, N-((S)-2-acetamido-1-(3-chlorophenyl)ethyl)-4-(3-amino-6-((1r,4S)-4-methoxy-cyclohexyl)pyrazin-2-yl)-2-fluorobenzamide]",0.249
4,"Nc1ncc([C@H]2CC[C@H](O)CC2)nc1-c1ccc(C(=O)N[C@H](CO)c2cccc(I)c2)c(F)c1 [Example 346, 4-(3-amino-6-((1r,4S)-4-hydroxy-cyclohexyl)pyrazin-2-yl)-2-fluoro-N-((S)-2-hydroxy-1-(3-iodophenyl)ethyl) benzamide]",0.0175
5,"Nc1ncc([C@@H]2CC[C@@H](O)[C@H](F)C2)nc1-c1ccc(C(=O)N[C@H](CO)c2cc(F)cc(Br)c2)c(F)c1 [Example 183, 4-(3-amino-6-((1R,3R,4R)-3-fluoro-4-hydroxycyclohexyl)pyrazin-2-yl)-N—((S)-1-(3-bromo-5-fluorophenyl)-2-hydroxyethyl)-2-fluorobenzamide]",0.0571
6,"Nc1ncc([C@H]2CC[C@H](O)CC2)nc1-c1ccc(C(=O)N[C@H](CNCCF)c2cc(F)cc(Br)c2)c(F)c1 [Example 412, 4-(3-amino-6-((1r,4S)-4-hydroxy-cyclohexyl)pyrazin-2-yl)-N-((S)-1-(3-bromo-5-fluorophenyl)-2-((2-fluoroethyl)amino)ethyl)-2-fluorobenzamide]",0.374
7,"Nc1ncc(C2CCOCC2)nc1-c1ccc(C(=O)N[C@H](CNCCF)c2cc(F)cc(Br)c2)c(F)c1 [Example 411, (S)-4-(3-amino-6-(tetrahydro-2H-pyran-4-yl)pyrazin-2-yl)-N-(1-(3-bromo-5-fluorophenyl)-2-((2-fluoroethyl)amino)ethyl)-2-fluorobenzamide]",0.0743
8,"CNC[C@@H](NC(=O)c1ccc(-c2nc([C@@H]3CC[C@@H](O)[C@H](F)C3)cnc2N)cc1F)c1cc(F)cc(Br)c1 [Example 361, 4-(3-amino-6-((1R,3R,4R)-3-fluoro-4-hydroxy-cyclohexyl)pyrazin-2-yl)-N-((S)-1-(3-bromo-5-fluorophenyl)-2-(methylamino)ethyl)-2-fluorobenzamide]",0.104
9,"Nc1ncc([C@@H]2CC[C@H](O)[C@H](O)C2)nc1-c1ccc(C(=O)N[C@H](CO)c2cc(F)cc(I)c2)c(F)c1 [Example 462, 4-(3-amino-6-((1R,3R,4S)-3,4-dihydroxy-cyclohexyl)pyrazin-2-yl)-2-fluoro-N-((S)-1-(3-fluoro-5-iodophenyl)-2-hydroxyethyl) benzamide]",0.135
10,"Cc1nn(C(F)F)cc1-c1cnc(N)c(-c2ccc(C(=O)N[C@H](CO)c3cccc(CF)c3)c(F)c2)c1 [Example 261, (S)-4-(2-amino-5-(1-(difluoromethyl)-3-methyl-1H-pyrazol-4-yl)pyridin-3-yl)-2-fluoro-N-(1-(3-(fluoromethyl)phenyl)-2-hydroxyethyl) benzamide]",0.0168
11,"Nc1ncc([C@H]2CC[C@H](O)CC2)nc1-c1ccc(C(=O)N[C@H](CO)c2cc(F)cc(CF)c2)c(F)c1 [Example 177, 4-(3-amino-6-((1r,4S)-4-hydroxycyclohexyl)pyrazin-2-yl)-2-fluoro-N—((S)-1-(3-fluoro-5-(fluoromethyl)phenyl)-2-hydroxyethyl)benzamide]",0.0229
12,"Cc1nn(C(F)F)cc1-c1cnc(N)c(-c2ccc(C(=O)N[C@H](CO)c3cc(F)cc(CF)c3)c(F)c2)c1 [Example 206, (S)-4-(2-amino-5-(1-(difluoromethyl)-3-methyl-1H-pyrazol-4-yl)pyridin-3-yl)-2-fluoro-N-(1-(3-fluoro-5-(fluoromethyl)phenyl)-2-hydroxyethyl)benzamide]",0.0104
13,"CSc1cccc([C@@H](CO)NC(=O)c2ccc(-c3nc([C@H]4CC[C@H](O)CC4)cnc3N)cc2F)c1 [Example 388, 4-(3-amino-6-((1r,4S)-4-hydroxy-cyclohexyl)pyrazin-2-yl)-2-fluoro-N-((S)-2-hydroxy-1-(3-(methylthio)phenyl)ethyl)benzamide]",0.0269
14,"Nc1ncc(C(=O)N2CCOCC2)nc1-c1ccc(C(=O)N[C@H](CO)c2cc(F)cc(Br)c2)c(F)c1 [Example 473, (S)-4-(3-amino-6-(morpholine-4-carbonyl)pyrazin-2-yl)-N-(1-(3-bromo-5-fluorophenyl)-2-hydroxyethyl)-2-fluorobenzamide]",10.5
15,"Nc1ncc(C2CCOCC2)nc1-c1ccc(C(=O)N[C@H](CO)c2ccccc2)cc1 [Example 135, (S)-4-(3-amino-6-(2,2,6,6-tetradeuterido-tetrahydro-2H-pyran-4-yl)pyrazin-2-yl)-N-(2-hydroxy-1-phenylethyl)benzamide]",0.631
16,"NC[C@@H](NC(=O)c1ccc(-c2nc([C@H]3CC[C@H](O)CC3)cnc2N)cc1F)c1cc(F)cc(I)c1 [Example 373, N-((S)-2-amino-1-(3-fluoro-5-iodophenyl)ethyl)-4-(3-amino-6-((1r,4S)-4-hydroxy-cyclohexyl)pyrazin-2-yl)-2-fluorobenzamide]",0.00837
17,"Nc1ncc(C(=O)N2CC(O)C2)nc1-c1ccc(C(=O)N[C@H](CO)c2cc(F)cc(Br)c2)c(F)c1 [Example 476, (S)-4-(3-amino-6-(3-hydroxyazetidine-1-carbonyl)pyrazin-2-yl)-N-(1-(3-bromo-5-fluorophenyl)-2-hydroxyethyl)-2-fluorobenzamide]",2.02
18,"CC(=O)NC[C@@H](NC(=O)c1ccc(-c2nc([C@H]3CC[C@H](O)CC3)cnc2N)cc1F)c1cccc(Cl)c1 [Example 405, N-((S)-2-acetamido-1-(3-chlorophenyl)ethyl)-4-(3-amino-6-((1r,4S)-4-hydroxy-cyclohexyl)pyrazin-2-yl)-2-fluorobenzamide]",0.238
19,"CNC[C@@H](NC(=O)c1ccc(-c2nc([C@@H]3CC[C@@H](O)[C@@H](F)C3)cnc2N)cc1F)c1cc(F)cc(Br)c1 [Example 355, 4-(3-amino-6-((1R,3S,4R)-3-fluoro-4-hydroxy-cyclohexyl)pyrazin-2-yl)-N-((S)-1-(3-bromo-5-fluorophenyl)-2-(methylamino)ethyl)-2-fluorobenzamide]",0.023
20,"CNC[C@@H](NC(=O)c1ccc(-c2nc([C@H]3CC[C@H](OC)CC3)cnc2N)cc1F)c1cccc(Cl)c1 [Example 377, 4-(3-amino-6-((1r,4S)-4-methoxy-cyclohexyl)pyrazin-2-yl)-N-((S)-1-(3-chlorophenyl)-2-(methylamino)ethyl)-2-fluorobenzamide]",0.07
21,"Nc1ncc([C@H]2CC[C@@H](O)[C@@H](F)C2)nc1-c1ccc(C(=O)N[C@H](CO)c2cc(F)cc(Br)c2)c(F)c1 [Example 186, 4-(3-amino-6-((1S,3S,4R)-3-fluoro-4-hydroxycyclohexyl)pyrazin-2-yl)-N—((S)-1-(3-bromo-5-fluorophenyl)-2-hydroxyethyl)-2-fluorobenzamide]",0.653
22,"CN1C[C@H](NC(=O)c2ccc(-c3cc(-c4cnn(C)c4)cnc3N)cc2F)[C@@H](c2ccc(F)c(Cl)c2)C1 (stereo in doubt) [Example 208, trans-4-(2-amino-5-(1-methyl-1H-pyrazol-4-yl)pyridin-3-yl)-N-((3R,4S)-4-(3-chloro-4-fluorophenyl)-1-methylpyrrolidin-3-yl)-2-fluorobenzamide]",7440
23,"Nc1ncc([C@@H]2CC[C@@H](O)[C@H](F)C2)nc1-c1ccc(C(=O)N[C@H](CO)c2cc(F)cc(I)c2)c(F)c1 [Example 190, 4-(3-amino-6-((1R,3R,4R)-3-fluoro-4-hydroxycyclohexyl)pyrazin-2-yl)-2-fluoro-N—((S)-1-(3-fluoro-5-iodophenyl)-2-hydroxyethyl)benzamide]",0.0176
24,"Nc1ncc(C(=O)N2CCC(O)CC2)cc1-c1ccc(C(=O)N[C@H](CO)c2cc(F)cc(Br)c2)c(F)c1 [Example 477, (S)-4-(2-amino-5-(4-hydroxypiperidine-1-carbonyl)pyridin-3-yl)-N-(1-(3-bromo-5-fluorophenyl)-2-hydroxyethyl)-2-fluorobenzamide]",8.59
25,"Cn1nncc1-c1cnc(N)c(-c2ccc(C(=O)N[C@H](CO)c3cc(F)cc(I)c3)c(F)c2)c1 [Example 267, (S)-4-(2-amino-5-(1-methyl-1H-1,2,3-triazol-5-yl)pyridin-3-yl)-2-fluoro-N-(1-(3-fluoro-5-iodophenyl)-2-hydroxyethyl) benzamide]",0.0158
26,"NC[C@@H](NC(=O)c1ccc(-c2nc([C@H]3CC[C@H](O)CC3)cnc2N)cc1F)c1cccc(I)c1 [Example 343, N-((S)-2-amino-1-(3-iodophenyl)ethyl)-4-(3-amino-6-((1r,4S)-4-hydroxy-cyclohexyl)pyrazin-2-yl)-2-fluorobenzamide]",0.011

# From US9242996B2 (Novartis AG, priority 2013, dated 2016)
